{"source": "paper PMC7564282", "about": "“Juniperonic Acid Biosynthesis is Essential in Caenorhabditis elegans Lacking Δ6 Desaturase (fat-3) and Generates New ω-3 Endocannabinoids” (Cells, 2020)", "key": {"fat-3(wa22) mutant [1]": {"system": "fat-3(wa22) mutant", "assay": "Brood size assay after dietary PUFA supplementation", "type": "in vivo, C. elegans", "details": "for hatching and brood size defects: fat-3(wa22), 200 μM in E. coli OP50 diet, p < 0.0001", "method": "(§1) Ten mM stock solutions of AA, ω-3 AA and JuA were prepared in DMSO and kept at −20 °C. These stocks were diluted in E. coli OP50 to a final concentration of 200 μM, and 100 μL of the volume was seeded onto each plate, with appropriate DMSO controls, allowing drying for 1 h in the dark. The animals that were treated with the PUFAs from hatching were allowed to grow on these plates until they reached L4 larval stage.\nN2 (WT) and fat-3(wa22) were transferred onto NGM plates supplemented with PUFAs as described above. Once they reached L4 larval stage, one worm per plate was transferred to a plate freshly seeded with PUFAs and allowed to grow at 23 °C. These animals were transferred to new plates every 24 h until they ceased to lay eggs. The number of hatched progeny was checked and counts were performed after the population reached L3/L4 stage. This assay was carried out in three independent trials. Results were analyzed with GraphPad Prism 5®, San Diego, CA, USA. The data were pooled and analyzed using Student’s t test. p < 0.05 was accepted as statistically significant.\nThe RNA interference (RNAi) by feeding assay was performed on NGM agar plates supplemented with additional antibiotics ([…], […]) and 0.8 mM isopropyl-β-D-thiogalactopyranosid (IPTG). The Ahringer RNAi collection was used, E. coli HT115 bacteria containing RNAi vectors expressing double-stranded RNA of the genes fat-4, elo-1, and elo-2 were pre-cultured, induced with IPTG, and used as nematode food as described previously. Assays were carried out on plates seeded with RNAi bacteria induced overnight; the PUFAs were dissolved in sterile distilled water, and then overlaid on the plates just before the assays."}, "N2 (WT) animals": {"system": "N2 (WT) animals", "assay": "Lifespan assay, N2 (WT)", "type": "in vivo, C. elegans", "details": "supplementation, 23 °C, 50 μg/mL FUDR", "method": "as §1\nAll lifespan assays were carried out at 23 °C. Synchronized populations were obtained by allowing 10–15 hermaphrodites lay eggs overnight, and the next day the parents were removed. The eggs were allowed to hatch and 30 L4/young adult animals per plate (NGM plate containing 50 μg/mL FUDR to prevent the growth of progeny) were used for each assay. All the assays were carried out at least in triplicates and a minimum of two independent trials were performed for all conditions. The dead animals were counted starting the next day and exploding, protruding, bagging or contaminated animals were censored if applicable. We defined the day when we transferred the L4/young adult animals as day 0 of adult age. All statistical analyses were carried out using results that were analyzed with GraphPad Prism 5®. Kaplan–Meier lifespan analysis was carried out, and p values were calculated using the log-rank test. p < 0.05 was accepted as statistically significant."}, "fat-3(wa22) mutant [2]": {"system": "fat-3(wa22) mutant", "assay": "Development monitoring after dietary PUFA supplementation", "type": "in vivo, C. elegans", "details": "200 μM in E. coli OP50 diet, 36 h after hatching, 23 °C", "method": "as §1, with “stage. For monitoring the development N2 (WT) and fat-3(wa22) gravid animals were allowed to lay eggs for 2–3 h. These eggs were transferred onto NGM plates supplemented with PUFAs as described above. Their growth was monitored and then imaged using an AmScope MU1000 camera, USA.” for “stage.”"}, "NPR-32": {"target": "T1, NPR-32 (Caenorhabditis elegans, UniProt O62403)", "T1 sequence (O62403 1-440)": "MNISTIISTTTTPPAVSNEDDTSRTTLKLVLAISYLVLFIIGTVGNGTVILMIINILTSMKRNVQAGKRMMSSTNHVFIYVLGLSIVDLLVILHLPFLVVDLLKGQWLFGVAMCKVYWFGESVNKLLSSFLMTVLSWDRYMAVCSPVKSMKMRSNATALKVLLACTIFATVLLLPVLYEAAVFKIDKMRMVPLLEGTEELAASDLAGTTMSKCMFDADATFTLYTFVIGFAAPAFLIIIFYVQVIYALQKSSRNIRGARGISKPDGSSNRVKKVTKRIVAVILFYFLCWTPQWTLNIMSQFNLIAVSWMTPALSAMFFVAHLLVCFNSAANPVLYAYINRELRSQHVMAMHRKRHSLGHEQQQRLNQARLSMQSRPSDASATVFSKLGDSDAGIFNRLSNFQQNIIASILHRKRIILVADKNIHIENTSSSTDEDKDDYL", "assay": "NPR-32 competitive binding assay with [3H]CP55,940 on N2 (WT) membrane preparations", "design": "species or system C. elegans", "method": "(§2) Worm homogenization and membrane preparation: the animals were collected from NGM plates as described before. The animals were freshly broken/homogenized by tip sonication before the beginning of every assays in S-basal and then a protein estimation was carried out for these samples, by a standard BCA kit (Sigma-Aldrich, St. Louis, MO, USA). For membrane preparations the worm pellet was resuspended in homogenization buffer (50 mM Tris HCl pH = 7.4, 3 mM MgCl2, 1 mM EGTA). Next, the homogenate was transferred to an ultracentrifuge tube and spun at 100,000× g for 60 min at 4 °C. The supernatant was carefully removed and the pellet was gently washed. Then, the pellet was resuspended with the help of a polytron in 50 mM Tris HCl pH = 7.4 and passed through a clean syringe. Finally, the sample was sonicated in a water bath for 5 min. A protein estimation for the membranes was carried out and the aliquots were frozen and stored at −80 °C.\nCP55,940 for 75 min at 30 °C. After the incubation time, membrane suspensions were rapidly filtered through a 0.1% polyethyleneimine presoaked 96-well microplate bonded with GF/B glass fiber filters (UniFilter-96 GF/B, PerkinElmer Life Sciences) under vacuum and washed 12 times with 120 µL of washing buffer (50 mM Tris-HCl, 2.5 mM EDTA, 5 mM MgCl2, 0.5% BSA, pH 7.5). […] The results were analyzed with GraphPad Prism 5® and expressed as % of [^3H]CP55,940 binding. IC50 values of each compound were estimated from fitted nonlinear curves and were used to calculate the Ki values by applying the Cheng-Prusoff equation."}, "FAAH": {"target": "T2, FAAH (Sus scrofa, UniProt Q9TUI8)", "T2 construct": "or pig brain homogenate (200 µg per sample); from tissue; host or cells: pig brain homogenate", "T2 sequence (Q9TUI8 1-579)": "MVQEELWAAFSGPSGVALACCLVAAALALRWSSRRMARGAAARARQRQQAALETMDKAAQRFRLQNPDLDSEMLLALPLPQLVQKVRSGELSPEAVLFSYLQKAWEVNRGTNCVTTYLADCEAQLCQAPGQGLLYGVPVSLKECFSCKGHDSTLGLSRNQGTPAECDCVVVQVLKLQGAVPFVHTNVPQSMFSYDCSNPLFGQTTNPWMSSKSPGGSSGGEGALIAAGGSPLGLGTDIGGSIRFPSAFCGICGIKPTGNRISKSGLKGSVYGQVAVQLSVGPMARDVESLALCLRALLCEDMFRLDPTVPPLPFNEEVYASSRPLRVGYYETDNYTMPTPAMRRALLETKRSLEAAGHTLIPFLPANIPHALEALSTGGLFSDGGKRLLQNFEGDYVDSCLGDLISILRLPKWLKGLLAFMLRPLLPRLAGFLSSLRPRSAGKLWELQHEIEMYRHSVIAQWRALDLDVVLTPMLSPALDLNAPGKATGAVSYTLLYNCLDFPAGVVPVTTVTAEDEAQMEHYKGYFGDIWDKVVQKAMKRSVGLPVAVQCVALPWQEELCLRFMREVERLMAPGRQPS", "assay": "Competitive [3H]AEA hydrolysis assay in pig brain homogenate", "type": "biochemical", "method": "AEA and [^3H] 2-OG, respectively. The reaction was performed using worm homogenate (200 or 100 µg per sample) or pig brain homogenate (200 µg per sample) in 194 μL of assay buffer (10 mM Tris-HCl, 1 mM EDTA, 0.1 % BSA, pH 8.0). […] The reaction was stopped by adding 400 μL of ice-cold mixture CHCl3-CH3OH (1:1 v/v), and, subsequently, tubes were vortexed and centrifuged for 10 min at 4 °C and 10,000 rpm. Finally, the upper aqueous phase was transferred to scintillation vials and mixed with 3 mL of Ultima Gold scintillation liquid. Signal was detected with TRICARB 2100TR scintillation counter and results were analyzed with GraphPad Prism 5® and expressed as [^3H] AEA or [^3H] 2-OG hydrolysis (% of vehicle)."}, "FAAH-1": {"target": "T3, FAAH-1 (Caenorhabditis elegans, UniProt Q17449)", "T3 construct": "from tissue; host or cells: whole C. elegans worm homogenate", "T3 sequence (Q17449 15-572)": "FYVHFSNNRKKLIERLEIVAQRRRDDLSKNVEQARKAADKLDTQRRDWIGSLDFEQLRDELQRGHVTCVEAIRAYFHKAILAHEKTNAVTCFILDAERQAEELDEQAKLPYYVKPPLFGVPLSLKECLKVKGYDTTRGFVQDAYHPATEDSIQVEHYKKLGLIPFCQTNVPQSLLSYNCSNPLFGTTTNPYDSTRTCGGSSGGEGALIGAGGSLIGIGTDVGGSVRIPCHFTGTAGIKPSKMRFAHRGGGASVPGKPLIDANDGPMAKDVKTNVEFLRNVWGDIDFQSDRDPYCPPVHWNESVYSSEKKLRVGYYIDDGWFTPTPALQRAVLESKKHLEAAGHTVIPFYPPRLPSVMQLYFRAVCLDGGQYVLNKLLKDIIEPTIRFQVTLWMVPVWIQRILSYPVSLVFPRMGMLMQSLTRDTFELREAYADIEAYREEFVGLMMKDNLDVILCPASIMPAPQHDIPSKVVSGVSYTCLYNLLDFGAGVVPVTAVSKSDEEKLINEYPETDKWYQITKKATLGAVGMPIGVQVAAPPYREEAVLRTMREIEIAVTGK", "assay": "Competitive [3H]AEA hydrolysis assay in whole worm homogenate", "type": "biochemical, C. elegans", "method": "as §2\n(§3) AEA and [^3H] 2-OG, respectively. The reaction was performed using worm homogenate (200 or 100 µg per sample) or pig brain homogenate (200 µg per sample) in 194 μL of assay buffer (10 mM Tris-HCl, 1 mM EDTA, 0.1 % BSA, pH 8.0). […] Signal was detected with TRICARB 2100TR scintillation counter and results were analyzed with GraphPad Prism 5® and expressed as [^3H] […]"}, "[3]": {"system": "2-OG hydrolysis in whole worm homogenates", "assay": "Competitive [3H]2-OG hydrolysis assay in whole worm homogenate", "type": "biochemical, C. elegans", "method": "as §2, §3"}, "MAGL": {"system": "MAGL", "assay": "Competitive [3H]2-OG hydrolysis assay in pig brain homogenate", "type": "biochemical"}, "[4]": {"details": "read-out: Ki, NPR-32 binding; displacement of 3 nM [3H]CP55,940, N2 (WT) membranes, 5 µM JZL-195 preincubation; apparent Ki by Cheng-Prusoff; 95% CI"}, "[5]": {"details": "displacement of 3 nM [3H]CP55,940, N2 (WT) membranes, 5 µM JZL-195 preincubation; apparent Ki by Cheng-Prusoff; 95% CI; read-out: Ki, NPR-32 binding"}}, "note": "Like-named read-outs stand apart in the source and are kept apart here."}
{"molecule": "CCCCC/C=C\\C/C=C\\C/C=C\\C/C=C\\CCCC(=O)O", "note": "[AA, Arachidonic acid]", "values": [{"measurement": "hatching and brood size defects", "setting": "fat-3(wa22) mutant [1]", "result": "recovered"}, {"measurement": "effect on lifespan", "setting": "N2 (WT) animals", "result": "did not affect the lifespan"}, {"measurement": "recovery of growth and development defects", "setting": "fat-3(wa22) mutant [2]", "result": "significant recovery of growth and development defects"}]}
{"molecule": "CC/C=C\\C/C=C\\C/C=C\\CCCC/C=C\\CCCC(=O)O", "note": "[JuA, Juniperonic acid]", "values": [{"measurement": "reversal of growth delay and brood size reduction in RNAi knockdowns", "setting": "fat-3(wa22) mutant [1]; fat-3(wa22) with fat-4 and elo-2 RNAi knockdown, JuA supplementation", "result": "could reverse the additional detrimental effects"}, {"measurement": "hatching and brood size defects", "setting": "fat-3(wa22) mutant [1]", "result": "recovered"}, {"measurement": "effect on lifespan", "setting": "N2 (WT) animals", "result": "did not affect the lifespan"}, {"measurement": "recovery of growth and development defects", "setting": "fat-3(wa22) mutant [2]", "result": "significant recovery of growth and development defects"}]}
{"molecule": "CC/C=C\\C/C=C\\C/C=C\\C/C=C\\CCCCCCC(=O)O", "note": "[ω-3 AA, Omega-3 arachidonic acid]", "values": [{"measurement": "hatching and brood size defects", "setting": "fat-3(wa22) mutant [1]", "result": "recovered"}, {"measurement": "effect on lifespan", "setting": "N2 (WT) animals", "result": "did not affect the lifespan"}, {"measurement": "recovery of growth and development defects", "setting": "fat-3(wa22) mutant [2]", "result": "significant recovery of growth and development defects"}]}
{"molecule": "CCCCC/C=C\\C/C=C\\C/C=C\\C/C=C\\CCCC(=O)NCCO", "note": "[AEA, N-arachidonoyl ethanolamine]", "values": [{"measurement": "Ki", "setting": "NPR-32; [4]", "result": 1900, "unit": "nM"}]}
{"molecule": "CC/C=C\\C/C=C\\C/C=C\\C/C=C\\CCCCCCC(=O)NCCO", "note": "[ω-3 AEA, Omega-3 N-arachidonoyl ethanolamine]", "values": [{"measurement": "IC50", "setting": "FAAH; 20 min 37 °C, AEA final 2 µM, read-out: IC50, competition with [3H]-AEA hydrolysis", "result": "> 100000", "unit": "nM"}, {"measurement": "Ki", "setting": "NPR-32; [4]", "result": 1000, "unit": "nM"}, {"measurement": "IC50", "setting": "FAAH-1; whole worm homogenate, 20 min 37 °C, AEA final 2 µM, read-out: IC50, competition with [3H] AEA hydrolysis", "result": 36000, "unit": "nM"}]}
{"molecule": "1/2-juniperoylglycerol [1/2-JG]", "values": [{"measurement": "competition with 2-OG hydrolysis", "setting": "[3]", "result": "competed"}, {"measurement": "Ki", "setting": "NPR-32; [5]", "result": 1100, "unit": "nM"}, {"measurement": "hydrolysis by MAGL (competition with tritiated 2-OG)", "setting": "MAGL", "result": "readily hydrolyzed"}]}
{"molecule": "CC/C=C\\C/C=C\\C/C=C\\CCCC/C=C\\CCCC(=O)NCCO", "note": "[JEA, N-juniperoyl ethanolamine]", "values": [{"measurement": "hydrolysis by FAAH (competition with tritiated AEA)", "setting": "FAAH", "result": "readily hydrolyzed"}, {"measurement": "Ki", "setting": "NPR-32; [5]", "result": 740, "unit": "nM"}, {"measurement": "competition with AEA hydrolysis", "setting": "FAAH-1; whole worm homogenates", "result": "competed"}]}
{"molecule": "Omega-3 1/2-arachidonoyl glycerol [ω-3 1/2-AG]", "values": [{"measurement": "competition with 2-OG hydrolysis", "setting": "[3]", "result": "competed"}]}
